Test system: Transport facilitation protein genes
Assay: DNA chip mRNA expression in yeast, transport facilitation protein genes (Table 5)
Format: cell-based, Saccharomyces cerevisiae S288C
Outline: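 S. cerevisiae S288C grown at 25° C. in YPD to log phase, then exposed 2 h to a toxicant at a growth-inhibiting, non-lethal concentration; untreated cells as control. Poly(A) mRNA reverse-transcribed with Cy3-dUTP or Cy5-dUTP, hybridized >12 h at 65° C. to whole-genome yeast DNA chip; value = fluorescence ratio treated/untreated.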

Measured: The level of expressed mRNA in the presence of chemical substance/The level of expressed mRNA in the absence of chemical substance

CCCCCCCCCCCCOS(=O)(=O)[O-].[Na+] [(18), sodium lauryl sulfate]
1.7: yeast gene YKL016C | yeast gene YNL055C | yeast gene YOR332W
1.6: yeast gene YMR011W
1.3: yeast gene YGR224W | yeast gene YHR092C | yeast gene YJR106W | yeast gene YPL134C | yeast gene YPL271W
3.1: yeast gene YGR281W | yeast gene YOR153W | yeast gene YOR273C
2.4: yeast gene YNL259C
0.9: yeast gene YGR260W | yeast gene YIL006W | yeast gene YKL146W | yeast gene YLR081W | yeast gene YOL156W | yeast gene YOR348C | yeast gene YPR192W | yeast gene YPR194C
3.6: yeast gene YPL147W
1.4: yeast gene YHR094C | yeast gene YIL088C | yeast gene YJR121W
1.5: yeast gene YLR295C
1.0: yeast gene YHL040C | yeast gene YJL034W | yeast gene YKR067W | yeast gene YLR348C | yeast gene YNR072W | yeast gene YOL119C | yeast gene YOR316C
1.2: yeast gene YHL035C | yeast gene YHL047C | yeast gene YHR175W | yeast gene YIL056W | yeast gene YJL219W | yeast gene YLL028W
0.8: yeast gene YJR077C | yeast gene YOL163W
0.7: yeast gene YIL022W | yeast gene YLR378C | yeast gene YMR203W
1.1: yeast gene YHR026W | yeast gene YKR039W | yeast gene YMR162C | yeast gene YOR130C
2.1: yeast gene YOR035C
0.5: yeast gene YJL212C | yeast gene YPL036W

From patent publication US8192962B2, “Processes for detecting toxic substances” (Daikin Industries, Ltd., priority 2001, dated 2012)
